Where a SMILES comes first, the peptide text is derived from it. [ ]: non-standard residue; d: D form. Nle = CCCC[C@H](N)C(=O)O
Legend:
GRP receptor [1] = biological target: T1, GRP receptor (Mus musculus, UniProt P21729); test: ^125I-GRP ligand binding assay, detergent solubilized Swiss 3T3 fibroblast membranes; details: for Solubilized Membranes Counts/minute Bound Measured as % of Total Added: 10 µM nucleotide added to control containing MgCl2, 0.075% CHAPS, 0.015% CHS, control 28
T1 construct: endogenous in cells; host or cells: mouse Swiss 3T3 fibroblasts (membranes; intact or solubilized with CHAPS/CHS)
T1 sequence (P21729 whole entry): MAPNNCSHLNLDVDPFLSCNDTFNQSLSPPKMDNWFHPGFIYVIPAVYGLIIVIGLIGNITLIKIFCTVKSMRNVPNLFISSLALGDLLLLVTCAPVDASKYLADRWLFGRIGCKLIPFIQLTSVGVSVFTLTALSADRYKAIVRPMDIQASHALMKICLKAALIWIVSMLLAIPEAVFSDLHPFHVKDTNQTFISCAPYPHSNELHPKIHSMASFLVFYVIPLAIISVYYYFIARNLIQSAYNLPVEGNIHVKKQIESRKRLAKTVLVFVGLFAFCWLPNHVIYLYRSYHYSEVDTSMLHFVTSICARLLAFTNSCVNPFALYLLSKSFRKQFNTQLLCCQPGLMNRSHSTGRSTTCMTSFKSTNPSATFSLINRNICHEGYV
Protocol: Swiss 3T3 fibroblast membranes, prepared in Example 1, were suspended at 15 mg protein/ml in 50 mM HEPES, pH 7.5, 1.0 mM EGTA, 100 mM NaCl, 0.25 M sucrose, 50 µg/ml leupeptin, 5 µg/ml pepstatin, 10 µg/ml aprotinin, 30 µg/ml bacitracin, and 0.5 mM phenylmethylsulfonyl fluoride. A mixture of 3-[(3cholamidopropyl) dimethylammonio]-1- propane sulfonate (CHAPS) and cholesteryl hemisuccinate (CHS) in a ratio of 10:1 was added slowly to yield a final concentration of 0.75% CHAPS. The extract was incubated at 21°C for 30 minutes, cooled to 4°C and the insoluble material was removed by centrifugation at 100,000 x gravity for 60 minutes.
For assays of detergent solubilized membrane extracts, the final CHAPS detergent concentration was adjusted to between 0.050% and 0.20%. The concentration of CHS was maintained at 1/5 to 1/10 the concentration of CHAPS. Samples were also prepared omitting the BSA. After incubation at 15°C for 30 minutes, samples were cooled to 0°C. Bound ligand (^125I-GRP:GRP receptor complex) was recovered by rapid filtration through polyethyleneimine treated Whatman GF/B filters, followed by four washes with 4 mls of ice cold Tris buffer (50 mM Tris/Cl, pH 7.5). The filters were counted in an Isodata 500 gamma counter.
Scatchard analysis of ^125I-GRP binding to intact and solubilized Swiss 3T3 membranes was done. One particular experiment is discussed below, where the binding parameters of the solubilized and the membrane bound form of the receptor are determined under similar conditions.

GRP receptor [2] = biological target: T1, GRP receptor; test: ^125I-GRP ligand binding assay, intact Swiss 3T3 fibroblast membranes; details: 5 µM nucleotide added to control containing MgCl2; control 28.9
Protocol: For assays of detergent solubilized membrane extracts, the final CHAPS detergent concentration was adjusted to between 0.050% and 0.20%. The concentration of CHS was maintained at 1/5 to 1/10 the concentration of CHAPS. Samples were also prepared omitting the BSA. After incubation at 15°C for 30 minutes, samples were cooled to 0°C. […] The filters were counted in an Isodata 500 gamma counter.
One particular experiment is discussed below, where the binding parameters of the solubilized and the membrane bound form of the receptor are determined under similar conditions.

Compound | Solubilized Membranes Counts/minute Bound Measured as % of Total Added (GRP receptor [1]) [%] | IC50 (GRP receptor [1]; unlabeled competitor peptide) [nM] | time at which binding to the soluble receptor leveled off (GRP receptor [1]; 15°C, remained constant for up to 2 hours) [min] | Intact Membranes Counts/minute Bound Measured as % of Total Added (GRP receptor [2]) [%]
3-(125Iodotyrosyl15) gastrin releasing peptide [^125I-GRP] |  |  | ≤ 20 | 
Nc1ncnc2c1ncn2[C@@H]1O[C@H](COP(=O)(O)OP(=O)(O)NP(=O)(O)O)[C@@H](O)[C@H]1O [AMPPNP] | 27.8 |  |  | 33.4
Nc1ncnc2c1ncn2[C@@H]1O[C@H](COP(=O)(O)OP(=O)(O)OP(=O)(O)O)[C@@H](O)[C@H]1O [ATP] |  |  |  | 29.7
Nc1nc2c(ncn2[C@@H]2O[C@H](COP(=O)(O)OP(=O)(O)OP(=O)(O)O)[C@@H](O)[C@H]2O)c(=O)[nH]1 [GTP] | 27.5 |  |  | 10.7

The next lines start with results.

Solubilized Membranes Counts/minute Bound Measured as % of Total Added (GRP receptor [1]) [%] | IC50 (GRP receptor [1]; unlabeled competitor peptide) [nM] | Compound | time at which binding to the soluble receptor leveled off (GRP receptor [1]; 15°C, remained constant for up to 2 hours) [min] | Intact Membranes Counts/minute Bound Measured as % of Total Added (GRP receptor [2]) [%]
26.5 |  | Nc1nc2c(ncn2[C@@H]2O[C@H](COP(=O)(O)OP(=O)(O)NP(=O)(O)O)[C@@H](O)[C@H]2O)c(=O)[nH]1 [GMPPNP] |  | 10.5
 | 0.3 | CCCC[C@H](NC(=O)[C@H](CC(C)C)NC(=O)[C@H](Cc1c[nH]cn1)NC(=O)CNC(=O)[C@@H](NC(=O)[C@H](C)NC(=O)[C@H](Cc1c[nH]c2ccccc12)NC(=O)[C@H](Cc1c[nH]cn1)NC(=O)[C@H](CC(N)=O)NC(=O)CNC(=O)[C@H](CCCNC(=N)N)NC(=O)[C@@H]1CCCN1C(=O)[C@H](Cc1ccc(O)cc1)NC(=O)[C@H](CCCC)NC(=O)[C@@H](N)CCCCN)C(C)C)C(N)=O [[Nle^14,27]GRP13-27] (H-K[Nle]YPRGNHWAVGHL[Nle]-NH2) |  | 
